{"source": "patent US20080206334A1", "about": "(priority 2005, published 2008)", "key": {"[1]": {"assay": "Excipient compatibility by DSC", "format": "physicochemical", "conditions": "1:1 (w/w) mixtures with xanthan gum, chitosan, magnesium stearate, NaHCO3", "protocol": "Samples of 5-10 mg in weight were placed in hermetically sealed DSC pans. Samples were scanned at a rate of 10° C./min, and thermograms were obtained. The thermal analyzer (DSC) was calibrated prior to use by indium. The calibration procedure was repeated many times prior to DSC runs."}, "[2]": {"conditions": "cited from earlier work"}, "[3]": {"conditions": "administered orally; cited from earlier work"}}, "note": "Counter-ions that a name gives are not always drawn.", "data": [{"smiles": "CC(C)(C)NCC(O)c1cc(O)cc(O)c1", "note": "(stereo not drawn) [Terbutaline sulfate]", "values": [{"measurement": "Excipient compatibility (DSC thermograms)", "setting": "[1]", "result": "excipients are compatible with Terbutaline sulfate"}, {"measurement": "Solubility in water", "setting": "[2]", "result": "> 20", "unit": "mg/mL"}, {"measurement": "Biological half-life", "setting": "[3]", "result": "about 3.6 hrs"}]}]}
